Results published in patent publication US5208032A, “Increasing the growth of turkeys using implant of 19-nortestosterone” (Rutgers, The State University of New Jersey, priority 1992, dated 1993).

Columns and labels:
[1] = Comparison of growth on treated male turkeys (Study I, Table V); format: in vivo, Large White Nicholas turkeys; parameters: Abdominal Adipose: unit not given here; settings: intact male; for Feed/Gain Ratio: n = 4; for Abdominal Adipose (%) / Average Daily Gain (%) / Final 10-Week Body Weight (%) / Right Breast Muscle (%) / Feed Efficiency: change vs placebo; for Abdominal Adipose (%): unsigned (decrease); for Average Daily Gain (%) / Final 10-Week Body Weight (%) / Right Breast Muscle (%): unsigned (increase); for Feed Efficiency: column head prints (g), cells %
Experimental: (§1) The same large white strain of turkey (received 1 day posthatching from Nicholas Breeding Farms, CA) was used in all studies. Poults were reared in deep litter brooder pens from 1 day posthatch and exposed to constant light until initiation of Studies I and III or through completion in the case of Study II. Studies I and III were conducted in an environmentally controlled room (photoperiod 12L:12D) with birds housed individually in wire-floored layer cages (space dimensions of 0.31 W×0.46 L×0.53 H meters per cage). Water and feed (Agway Game and Turkey Starter Crumbles) was available at all times. Turkeys were rank ordered by weight and distributed into treatment groups of equal mean body weights at the start of each Study (I, II and III).
(§2) Body weight determinations were made at the second and final week of each study, and several organs and tissues were excised and immediately weighed at the time of necropsy. Final shank-toe length, as an indicator of skeletal growth, was also determined. Birds were sacrificed via exanguination by laceration of the jugular vein. Specific details on the experimental design and conduct of each turkey study will follow.
At 7 weeks of age, forty-nine male turkeys were rank ordered by weight and assigned to 7 treatment groups ([…]) of equal mean weights. Within treatment groups, two birds were individually caged (layer cages measuring 0.31 W×0.46 L×0.53 H meters/cage) side by side on one of three tiers (5 cages/tier and 3 tiers/rack). […] Individual treatment units (or bird sets) were randomized (planned) into cages among tiers and racks to eliminate any rack (5) or tier (3 vertical) effects within the room.
Group 1 control males were implanted with a 50-mg compressed (methylcellulose/lactose) placebo pellet. The remaining 6 treatment groups were as follows: Group 2, 50-mg testosterone pellet; Group 3, 50-mg 5-alpha-DHT pellet; Group 4, 50-mg 19-nortestosterone pellet; Group 5, 5.0-cm testosterone Silastic polysiloxane capsule; Group 6, 5-cm 5-alpha-DHT Silastic polysiloxane capsule and Group 7, 5.0-cm 19-nortestosterone Silastic polysiloxane capsule. Excluding feed efficiency, data means for all parameters were compared between treatments using individual birds as replicates (n=8). Data means for feed efficiency were compared between treatments using sets of birds as replicates (n=4).

[2] = Growth promotion and feed efficiency in turkeys (summary in words); format: in vivo
Experimental: A presently preferred dosage in the form of such a subcutaneous implant is at least about 20 mg, with a dosage of about 50 mg being highly suitable. It has been found suitable to administer the 19-nortestosterone subcutaneously, for example, below the ear of the turkey, using conventional implanting devices. The dosage can be administered in the form of an implant device which releases the 19-nortestosterone slowly in a desired constant rate, over a period of time such a about 21 days or more. Desirably, the implant can be in the form of a capsule enveloping the 19-nortestosterone which provides the desired slow, constant release or in the form of a polymer mass pellet having encapsulated or dispersed therein 19-nortestosterone so as to permit by diffusion or slow dissolution release subcutaneously and subsequent systemic absorption. It has been found suitably to use silicone rubber as a polymeric encapsulating material.
It is a natural compound.

[3] = Comparison of growth in treated female turkeys (Study II, Table IV); format: in vivo, Large White Nicholas turkeys; parameters: Abdominal Adipose: unit not given here; settings: intact female; for Feed/Gain Ratio: 6 through 9 weeks; for Abdominal Adipose (%) / Feed/Gain Ratio (%) / Right Breast Muscle (%) / Average Daily Gain (%) / Final 9-Week Body Weight (%): change vs placebo; for Abdominal Adipose (%) / Feed/Gain Ratio (%): unsigned (decrease); for Right Breast Muscle (%) / Average Daily Gain (%) / Final 9-Week Body Weight (%): unsigned (increase)
Experimental: as §1, §2
At 6 weeks of age, seventy-seven female turkeys were rank ordered by weight and assigned to 7 treatment groups (11 birds per group) of equal mean weights. Within treatment groups, birds were further allotted to deep-litter pens (3.66×4.27 m) containing 4 subdivisions (0.91×1.22 m), with 3 birds per subdivision except for the last which contained 2. Individual treatment units (or pen subdivisions) were randomized (planned) among pens within the building, such that each pen contained 4 different treatment units (3 or 2 birds each). Feed consumption for each treatment unit was measured; thus, 4 replicates per treatment for feed consumption and feed/gain ratios (or feed efficiency) were calculated.
Treatments entailed the subcutaneous implantation (between the shoulders) of testosterone, 5-alpha-DHT or 19-nortestosterone as either a low (5-mg) or high (50-mg) dose pellet (Innovative Research of America, Rockville, Md.). Implants were specially constructed (steroid compressed into a methylcellulose/lactose pellet) to release respective steroids at a constant rate over a 21 day period (manufacturer statement). In support, a recent report by Satyaswaroop et al. (1984) on mice, found Innovative Research 17 beta-estradiol pellets to have excellent 21-day continued release characteristics (i.e., maintained blood levels of 20-30 ng/ml for 21 days). Group 1 controls were composed of females implanted with a 50-mg placebo pellet. The remaining 6 female treatment groups were as follows: Group 2, testosterone (5-mg); Group 3, 5-alpha-DHT (5-mg); Group 4, 19-nortestosterone (5-mg); Group 5, testosterone (50-mg); Group 6, 5-alpha-DHT (50-mg) and Group 7, 19-nortestosterone (50-mg). Excluding feed efficiency, data means for all other parameters were compared between treatments using individual birds as replicates (n=11). Data means for feed consumption and feed efficiency were compared between treatments using pen subdivisions (3 or 2 birds/subdivision) as replicates (n=8).
^a 5 or 50mg slow release pellets (Innovative Research) administered
subcutaneously at 6 weeks of age.
^b Data for Feed to Gain Ratio is computed for the period 6 through 9
weeks of age. Experimental units are floor pens (n = 4) of […]
values are means and SEM of the pen averages.

## C[C@]12CC[C@H]3[C@@H](CCC4=CC(=O)CC[C@@H]43)[C@@H]1CC[C@@H]2O [19-Nortestosterone, 19-nortestosterone]
[1]; 5-cm Silastic capsule
  Abdominal Adipose: 7.88 ± 2.10
  Average Daily Gain: 131 ± 3 g
  Final 10-Week Body Weight: 5410 ± 73 g
  Final 10-Week Shank-Toe Length: 23.5 ± 0.15 cm
  Right Breast Muscle: 513 ± 15 g
  Feed/Gain Ratio: 1.94 ± 0.041
[1]; 5-cm capsule
  Abdominal Adipose (%): 52.8%
  Average Daily Gain (%): 20.2%
  Final 10-Week Body Weight (%): 10.2%
  Right Breast Muscle (%): 12.6%
  Feed Efficiency: 23.6%
[1]; 50-mg pellet
  Abdominal Adipose: 6.74 ± 1.57
  Average Daily Gain: 132 ± 6 g
  Final 10-Week Body Weight: 5416 ± 136 g
  Final 10-Week Shank-Toe Length: 23.3 ± 0.22 cm
  Right Breast Muscle: 529 ± 22 g
  Feed/Gain Ratio: 1.99 ± 0.091
  Abdominal Adipose (%): 59.6%
  Average Daily Gain (%): 21.1%
  Final 10-Week Body Weight (%): 10.3%
  Right Breast Muscle (%): 23.3%
  Feed Efficiency: 21.6%
[2]; Table IV and Table V
  results compared with testosterone in turkeys: unexpectedly superior advantages
[2]; turkey carcass
  relative amount of fat mass: a lower relative amount of fat mass
[2]; turkeys
  growth rate and feed efficiency: an increase in growth rate and feed efficiency
  muscle mass: an increase in muscle mass
[2]; vs chickens (Table III)
  results in turkeys compared with 19-nortestosterone in chickens: unexpectedly superior results
[3]; 5-mg pellet
  Abdominal Adipose: 22.8
  Average Daily Gain: 108 ± 3 g
  Final 9-Week Body Weight: 4115 ± 122 g
  Final 9-Week Shank-Toe Length: 18.87 ± 0.25 cm
  Right Breast Muscle: 439 ± 15 g
  Feed/Gain Ratio: 1.92 ± 0.04
  Abdominal Adipose (%): 23%
  Feed/Gain Ratio (%): 9.0%
  Right Breast Muscle (%): 12.6%
[3]; 50-mg pellet
  Abdominal Adipose: 18.7
  Average Daily Gain: 127 ± 3 g
  Final 9-Week Body Weight: 4476 ± 94 g
  Final 9-Week Shank-Toe Length: 18.31 ± 0.24 cm
  Right Breast Muscle: 493 ± 17 g
  Feed/Gain Ratio: 1.76 ± 0.07
  Abdominal Adipose (%): 37%
  Feed/Gain Ratio (%): 16.6%
  Average Daily Gain (%): 23.3%
  Final 9-Week Body Weight (%): 11.6%
  Right Breast Muscle (%): 26.4%

## C[C@]12CC[C@H]3[C@@H](CCC4=CC(=O)CC[C@@]43C)[C@@H]1CC[C@@H]2O [Testosterone, testosterone]
[1]; 5-cm Silastic capsule
  Abdominal Adipose: 13.2 ± 3.57
  Average Daily Gain: 115 ± 2 g
  Final 10-Week Body Weight: 5055 ± 61 g
  Final 10-Week Shank-Toe Length: 24.2 ± 0.18 cm
  Right Breast Muscle: 457 ± 20 g
  Feed/Gain Ratio: 2.39 ± 0.088
[1]; 50-mg pellet
  Abdominal Adipose: 11.61 ± 1.37
  Average Daily Gain: 116 ± 4 g
  Final 10-Week Body Weight: 5100 ± 82 g
  Final 10-Week Shank-Toe Length: 23.6 ± 0.19 cm
  Right Breast Muscle: 450 ± 10 g
  Feed/Gain Ratio: 2.37 ± 0.086
[3]; 5-mg pellet
  Abdominal Adipose: 20.2
  Average Daily Gain: 108 ± 2 g
  Final 9-Week Body Weight: 4096 ± 65 g
  Final 9-Week Shank-Toe Length: 18.9 ± 0.16 cm
  Right Breast Muscle: 430 ± 15 g
  Feed/Gain Ratio: 2.01 ± 0.05
  Abdominal Adipose (%): 32%
[3]; 50-mg pellet
  Abdominal Adipose: 22.8
  Average Daily Gain: 119 ± 3 g
  Final 9-Week Body Weight: 4320 ± 69 g
  Final 9-Week Shank-Toe Length: 18.6 ± 0.13 cm
  Right Breast Muscle: 477 ± 17 g
  Feed/Gain Ratio: 1.91 ± 0.04
  Abdominal Adipose (%): 23%
  Feed/Gain Ratio (%): 9.5%
  Average Daily Gain (%): 15.5%
  Final 9-Week Body Weight (%): 7.7%
  Right Breast Muscle (%): 22.3%
